ChEMBL document CHEMBL6134864, “Discovery of FLT3-ITD Inhibitor Clifutinib: A Novel Biphenylacetylene Urea Derivative in Clinical Trials for the Treatment of Relapsed/Refractory FLT3-ITD+ Acute Myeloid Leukemia” (J Med Chem, 2025)
pIC50: −log10 of the molar value. Active and inactive are the calls of the source. The calls are words filed in the database; no cut-off is given here.

Assays:
[1] = Tmax in NOD/SCID mouse plasma xenografted with human MV4-11 cells at […], po measured up to 24 hrs by LC-MS/MS analysis; type: ADME, organism-based; details: dose 1.5 mg/kg
[2] = test system: Receptor-type tyrosine-protein kinase FLT3 (Homo sapiens), P36888 [UNDEFINED MUTATION]; assay: Inhibition of FLT3 in human MV4-11 cells harbouring FLT3-ITD mutant assessed as inhibition of AKT phosphorylation level measured after 2 hrs by Western blot analysis; type: cell-based; details: dose 1-1000 nM
Chain of Receptor-type tyrosine-protein kinase FLT3 (Homo sapiens), P36888 [UNDEFINED MUTATION] (P36888 whole entry, looked up, stated change not applied): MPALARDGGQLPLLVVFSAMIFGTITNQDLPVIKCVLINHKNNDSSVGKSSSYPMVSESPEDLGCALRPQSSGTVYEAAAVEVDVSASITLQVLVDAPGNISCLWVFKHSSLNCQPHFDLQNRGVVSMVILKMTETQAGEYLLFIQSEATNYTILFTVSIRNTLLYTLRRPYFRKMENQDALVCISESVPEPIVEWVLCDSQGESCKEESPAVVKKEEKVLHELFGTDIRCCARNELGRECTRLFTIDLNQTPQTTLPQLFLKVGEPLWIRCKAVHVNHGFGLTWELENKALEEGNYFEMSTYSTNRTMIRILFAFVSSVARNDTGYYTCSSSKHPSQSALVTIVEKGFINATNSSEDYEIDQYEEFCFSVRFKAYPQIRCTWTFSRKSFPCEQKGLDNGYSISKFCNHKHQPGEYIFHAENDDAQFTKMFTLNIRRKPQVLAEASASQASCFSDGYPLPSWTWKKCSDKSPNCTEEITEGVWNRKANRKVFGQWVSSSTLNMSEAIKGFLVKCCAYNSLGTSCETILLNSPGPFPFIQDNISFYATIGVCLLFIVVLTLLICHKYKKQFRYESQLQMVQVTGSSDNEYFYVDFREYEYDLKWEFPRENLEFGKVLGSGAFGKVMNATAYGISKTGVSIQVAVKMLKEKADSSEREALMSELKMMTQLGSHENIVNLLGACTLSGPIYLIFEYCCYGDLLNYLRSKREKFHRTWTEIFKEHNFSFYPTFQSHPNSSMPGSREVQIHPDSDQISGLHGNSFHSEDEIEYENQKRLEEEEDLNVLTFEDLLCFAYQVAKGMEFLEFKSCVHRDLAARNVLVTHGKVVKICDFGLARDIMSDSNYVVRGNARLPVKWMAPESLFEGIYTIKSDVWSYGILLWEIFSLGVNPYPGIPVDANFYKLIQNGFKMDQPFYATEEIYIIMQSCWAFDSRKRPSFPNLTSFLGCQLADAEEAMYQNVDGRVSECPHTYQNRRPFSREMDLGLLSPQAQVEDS

[3] = AUC last in dog plasma at 1 mg/kg, iv measured up to 24 hrs by LC-MS/MS analysis; type: ADME, organism-based, Canis lupus familiaris
HL-60 = assay: cells; details: Homo sapiens, HL-60, 72 h
Description: Antiproliferative activity against human HL-60 cells assessed as inhibition of cell growth incubated for 72 hrs by celltiter-glo luminescent cell viability assay

[4] = test system: Receptor-type tyrosine-protein kinase FLT3 (Homo sapiens), P36888 [UNDEFINED MUTATION]; assay: Inhibition of FLT3 in human MV4-11 cells harbouring FLT3-ITD mutant assessed as inhibition of STAT5 phosphorylation level measured after 2 hrs by Western blot analysis; type: cell-based; details: dose 1-1000 nM
MOLM-13 [5] = assay: Antitumor activity against human MOLM-13 cells xenografted in NOD/SCID mouse model assessed as tumor growth inhibition at […], po by caliper analysis relative to control; type: functional; details: dose 1.5 mg/kg/day, read-out: TGI
[6] = Oral bioavailability in dog plasma at 5 mg/kg measured up to 24 hrs by LC-MS/MS analysis; type: ADME, organism-based, Canis lupus familiaris
[7] = Tmax in dog plasma at 5 mg/kg, po measured up to 24 hrs by LC-MS/MS analysis; type: ADME, organism-based, Canis lupus familiaris
HCT-116 = assay: cells; details: Homo sapiens, HCT-116, 72 h
Description: Antiproliferative activity against human HCT-116 cells assessed as inhibition of cell growth incubated for 72 hrs by celltiter-glo luminescent cell viability assay

hERG (KCNH2) = hERG (KCNH2) (Homo sapiens, UniProt Q12809); assay: Inhibition of human ERG expressed in CHO cells at 30 uM by manual patch clamp assay relative to control; type: toxicity, cell-based; details: CHO cells expressing human ERG
[8] = Clearance in rat plasma at 5 mg/kg, po measured up to 24 hrs by LC-MS/MS analysis; type: ADME, organism-based
[9] = Half life in NOD/SCID mouse plasma xenografted with human MV4-11 cells at […], po measured up to 24 hrs by LC-MS/MS analysis; type: ADME, organism-based; details: dose 1.5 mg/kg
[10] = Cmax in NOD/SCID mouse tumor xenografted with human MV4-11 cells at […], po measured up to 24 hrs by LC-MS/MS analysis; type: ADME, organism-based, Neoplasm; details: dose 1.5 mg/kg
BaF3 [11] = assay: Antiproliferative activity against mouse BaF3 cells harbouring FLT3-ITD assessed as inhibition of cell growth incubated for 72 hrs by celltiter-glo luminescent cell viability assay; type: functional, cell-based; details: BaF3, 72 h
[12] = Cmax in mouse plasma at 10 mg/kg, po measured up to 24 hrs by LC-MS/MS analysis; type: ADME, organism-based
[13] = Cmax in monkey plasma at 1 mg/kg, iv measured up to 24 hrs by LC-MS/MS analysis; type: ADME, organism-based, Macaca mulatta; details: rhesus monkey
[14] = Cmax in NOD/SCID mouse tumor xenografted with human MV4-11 cells at 4.5 mg/kg, po measured up to 24 hrs by LC-MS/MS analysis; type: ADME, organism-based, Neoplasm
[15] = AUC (0 to t) in NOD/SCID mouse tumor xenografted with human MV4-11 cells at 0.5 mg/kg, po measured up to 24 hrs by LC-MS/MS analysis; type: ADME, organism-based, Neoplasm
[16] = AUC (0 to t) in NOD/SCID mouse plasma xenografted with human MV4-11 cells at 4.5 mg/kg, po measured up to 24 hrs by LC-MS/MS analysis; type: ADME, organism-based
BaF3 [17] = assay: Antiproliferative activity against mouse BaF3 cells harbouring FLT3-D835V mutant assessed as inhibition of cell growth incubated for 72 hrs by celltiter-glo luminescent cell viability assay; type: functional, cell-based; details: BaF3, 72 h
[18] = Half life in dog plasma at 1 mg/kg, iv measured up to 24 hrs by LC-MS/MS analysis; type: ADME, organism-based, Canis lupus familiaris
BaF3 [19] = assay: cells; details: Mus musculus, BaF3, 72 h
Description: Antiproliferative activity against mouse BaF3 cells harbouring FLT3-D83HY mutant assessed as inhibition of cell growth incubated for 72 hrs by celltiter-glo luminescent cell viability assay

Cytochrome P450 2C9 = Cytochrome P450 2C9 (Homo sapiens, UniProt P11712); assay: Inhibition of CYP2C9 in human liver microsomes by UPLC-MS/MS analysis; type: ADME, Microsome
Chain of Cytochrome P450 2C9 (P11712 whole entry): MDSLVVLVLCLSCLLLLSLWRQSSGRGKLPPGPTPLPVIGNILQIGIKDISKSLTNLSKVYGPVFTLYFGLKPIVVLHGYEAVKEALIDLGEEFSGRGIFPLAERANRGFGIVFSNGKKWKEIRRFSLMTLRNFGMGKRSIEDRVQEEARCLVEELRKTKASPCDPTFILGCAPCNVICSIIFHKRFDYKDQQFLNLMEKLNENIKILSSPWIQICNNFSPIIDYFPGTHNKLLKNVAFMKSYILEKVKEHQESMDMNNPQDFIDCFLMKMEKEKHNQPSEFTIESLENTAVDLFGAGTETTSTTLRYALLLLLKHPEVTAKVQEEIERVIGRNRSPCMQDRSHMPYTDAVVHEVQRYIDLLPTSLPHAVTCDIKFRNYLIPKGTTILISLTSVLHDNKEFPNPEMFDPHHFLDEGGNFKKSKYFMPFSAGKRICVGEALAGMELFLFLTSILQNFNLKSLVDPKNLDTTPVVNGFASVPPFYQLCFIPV

[20] = Tmax in dog plasma at 1 mg/kg, iv measured up to 24 hrs by LC-MS/MS analysis; type: ADME, organism-based, Canis lupus familiaris
Cytochrome P450 2D6 = Cytochrome P450 2D6 (Homo sapiens, UniProt P10635); assay: Inhibition of CYP2D6 in human liver microsomes by UPLC-MS/MS analysis; type: ADME, Microsome
Chain of Cytochrome P450 2D6 (P10635 whole entry): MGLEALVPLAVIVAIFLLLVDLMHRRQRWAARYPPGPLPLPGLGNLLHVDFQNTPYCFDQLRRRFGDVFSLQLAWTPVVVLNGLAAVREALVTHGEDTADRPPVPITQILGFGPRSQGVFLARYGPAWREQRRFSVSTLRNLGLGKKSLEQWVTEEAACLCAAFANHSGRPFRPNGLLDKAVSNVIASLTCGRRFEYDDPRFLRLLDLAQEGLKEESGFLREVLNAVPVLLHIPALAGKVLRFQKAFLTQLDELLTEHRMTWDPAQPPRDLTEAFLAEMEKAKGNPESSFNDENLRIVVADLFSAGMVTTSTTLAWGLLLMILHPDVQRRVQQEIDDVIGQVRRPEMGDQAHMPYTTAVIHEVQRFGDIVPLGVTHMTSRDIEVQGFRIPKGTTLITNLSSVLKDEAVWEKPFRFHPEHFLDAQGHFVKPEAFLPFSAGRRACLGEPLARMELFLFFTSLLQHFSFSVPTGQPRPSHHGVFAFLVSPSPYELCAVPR

[21] = biological target: Proto-oncogene tyrosine-protein kinase receptor Ret (Homo sapiens, UniProt P07949, Y791F); assay: Inhibition of human RET Y791F mutant by biochemical kinase binding assay
Chain of Proto-oncogene tyrosine-protein kinase receptor Ret (P07949 29-1114 Y791F limits assumed): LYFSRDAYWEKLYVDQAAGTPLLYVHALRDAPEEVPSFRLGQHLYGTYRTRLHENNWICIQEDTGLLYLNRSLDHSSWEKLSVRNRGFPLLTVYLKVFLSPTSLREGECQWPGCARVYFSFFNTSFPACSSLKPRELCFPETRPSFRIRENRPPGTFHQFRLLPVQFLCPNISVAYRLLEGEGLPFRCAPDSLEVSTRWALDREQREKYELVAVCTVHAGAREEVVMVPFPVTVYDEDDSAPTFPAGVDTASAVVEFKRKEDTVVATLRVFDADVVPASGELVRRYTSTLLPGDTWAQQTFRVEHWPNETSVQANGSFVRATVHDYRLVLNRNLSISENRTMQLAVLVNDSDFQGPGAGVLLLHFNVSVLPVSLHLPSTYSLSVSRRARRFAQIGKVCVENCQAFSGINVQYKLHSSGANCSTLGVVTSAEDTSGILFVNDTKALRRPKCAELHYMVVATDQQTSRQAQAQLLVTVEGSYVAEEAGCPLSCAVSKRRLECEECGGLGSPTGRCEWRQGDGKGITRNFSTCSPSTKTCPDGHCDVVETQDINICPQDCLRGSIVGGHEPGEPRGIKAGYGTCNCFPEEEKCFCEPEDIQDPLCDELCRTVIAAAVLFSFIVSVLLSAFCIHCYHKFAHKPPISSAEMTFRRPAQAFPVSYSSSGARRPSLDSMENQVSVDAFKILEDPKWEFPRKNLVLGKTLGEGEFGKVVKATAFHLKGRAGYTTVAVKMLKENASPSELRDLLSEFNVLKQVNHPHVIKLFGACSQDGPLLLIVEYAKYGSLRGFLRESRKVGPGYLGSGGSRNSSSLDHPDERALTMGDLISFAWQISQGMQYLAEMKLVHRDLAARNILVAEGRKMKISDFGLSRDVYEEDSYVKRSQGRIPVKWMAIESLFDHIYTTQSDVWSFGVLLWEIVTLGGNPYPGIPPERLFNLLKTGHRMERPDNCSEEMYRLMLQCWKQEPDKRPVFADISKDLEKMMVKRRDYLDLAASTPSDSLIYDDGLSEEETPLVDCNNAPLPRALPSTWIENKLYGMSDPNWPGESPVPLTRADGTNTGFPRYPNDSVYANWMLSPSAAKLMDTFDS

[22] = AUC (0 to t) in NOD/SCID mouse plasma xenografted with human MV4-11 cells at […], po measured up to 24 hrs by LC-MS/MS analysis; type: ADME, organism-based; details: dose 1.5 mg/kg
[23] = Volume of distribution at steady state in monkey plasma at 1 mg/kg, iv measured up to 24 hrs by LC-MS/MS analysis; type: ADME, organism-based, Macaca mulatta; details: rhesus monkey, read-out: Vdss
[24] = AUC (0 to t) in NOD/SCID mouse tumor xenografted with human MV4-11 cells at […], po measured up to 24 hrs by LC-MS/MS analysis; type: ADME, organism-based, Neoplasm; details: dose 1.5 mg/kg
MOLM-13 [25] = assay: Antitumor activity against human MOLM-13 cells xenografted in NOD/SCID mouse model assessed as tumor growth inhibition at 0.5 mg/kg/day, po by caliper analysis relative to control; type: functional; details: read-out: TGI
RPMI-8226 = assay: cells; details: Homo sapiens, RPMI-8226, 72 h
Description: Antiproliferative activity against human RPMI-8226 cells assessed as inhibition of cell growth incubated for 72 hrs by celltiter-glo luminescent cell viability assay

[26] = Half life in mouse plasma at 10 mg/kg, po measured up to 24 hrs by LC-MS/MS analysis; type: ADME, organism-based
[27] = test system: Receptor-type tyrosine-protein kinase FLT3 (Homo sapiens), P36888 [UNDEFINED MUTATION]; assay: Inhibition of FLT3 in human MV4-11 cells harbouring FLT3-ITD mutant assessed as effect on FLT3 protein level at 1 to 1000 nM measured after 2 hrs by Western blot analysis; type: cell-based; details: dose 1-1000 nM
[28] = biological target: Mast/stem cell growth factor receptor Kit (Homo sapiens, UniProt P10721); assay: Inhibition of human KIT by biochemical kinase binding assay
Chain of Mast/stem cell growth factor receptor Kit (Homo sapiens, UniProt P10721) (P10721 whole entry): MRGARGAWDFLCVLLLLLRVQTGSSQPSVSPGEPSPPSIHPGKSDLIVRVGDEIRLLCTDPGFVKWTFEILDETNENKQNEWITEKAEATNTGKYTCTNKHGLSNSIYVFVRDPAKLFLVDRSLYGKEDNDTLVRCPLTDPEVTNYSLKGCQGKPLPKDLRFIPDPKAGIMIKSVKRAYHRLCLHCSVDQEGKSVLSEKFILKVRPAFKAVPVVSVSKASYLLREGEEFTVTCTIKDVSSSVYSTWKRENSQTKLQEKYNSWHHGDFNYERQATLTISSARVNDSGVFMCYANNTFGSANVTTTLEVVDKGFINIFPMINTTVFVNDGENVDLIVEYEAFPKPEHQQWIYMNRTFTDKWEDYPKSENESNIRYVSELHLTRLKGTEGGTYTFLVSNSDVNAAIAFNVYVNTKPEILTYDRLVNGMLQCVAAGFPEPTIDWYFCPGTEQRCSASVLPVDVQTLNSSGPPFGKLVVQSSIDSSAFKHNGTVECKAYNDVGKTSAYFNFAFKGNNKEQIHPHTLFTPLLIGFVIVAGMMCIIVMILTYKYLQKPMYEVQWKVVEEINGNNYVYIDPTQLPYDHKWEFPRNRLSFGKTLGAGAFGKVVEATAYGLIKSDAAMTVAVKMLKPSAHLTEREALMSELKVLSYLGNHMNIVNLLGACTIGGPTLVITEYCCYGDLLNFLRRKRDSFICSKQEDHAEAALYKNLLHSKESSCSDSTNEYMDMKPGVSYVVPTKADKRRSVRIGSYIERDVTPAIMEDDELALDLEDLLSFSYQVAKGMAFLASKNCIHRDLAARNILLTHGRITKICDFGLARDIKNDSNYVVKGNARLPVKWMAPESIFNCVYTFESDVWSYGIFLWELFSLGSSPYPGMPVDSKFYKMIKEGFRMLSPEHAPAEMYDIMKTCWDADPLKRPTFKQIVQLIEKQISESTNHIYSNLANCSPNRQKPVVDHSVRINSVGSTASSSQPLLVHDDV

[29] = biological target: Mast/stem cell growth factor receptor Kit (Homo sapiens, UniProt P10721, T670I/V559D); assay: Inhibition of human KIT V559D/T670I mutant by biochemical kinase binding assay
BaF3 [30] = assay: Antiproliferative activity against mouse BaF3 cells harbouring FLT3-D835Y mutant assessed as inhibition of cell growth incubated for 72 hrs by celltiter-glo luminescent cell viability assay; type: functional, cell-based; details: BaF3, 72 h
[31] = biological target: Discoidin domain-containing receptor 2 (Homo sapiens, UniProt Q16832, T654M); assay: Inhibition of human DDR2 T654M mutant by biochemical kinase binding assay
Chain of Discoidin domain-containing receptor 2 (Q16832 22-855 T654M limits assumed): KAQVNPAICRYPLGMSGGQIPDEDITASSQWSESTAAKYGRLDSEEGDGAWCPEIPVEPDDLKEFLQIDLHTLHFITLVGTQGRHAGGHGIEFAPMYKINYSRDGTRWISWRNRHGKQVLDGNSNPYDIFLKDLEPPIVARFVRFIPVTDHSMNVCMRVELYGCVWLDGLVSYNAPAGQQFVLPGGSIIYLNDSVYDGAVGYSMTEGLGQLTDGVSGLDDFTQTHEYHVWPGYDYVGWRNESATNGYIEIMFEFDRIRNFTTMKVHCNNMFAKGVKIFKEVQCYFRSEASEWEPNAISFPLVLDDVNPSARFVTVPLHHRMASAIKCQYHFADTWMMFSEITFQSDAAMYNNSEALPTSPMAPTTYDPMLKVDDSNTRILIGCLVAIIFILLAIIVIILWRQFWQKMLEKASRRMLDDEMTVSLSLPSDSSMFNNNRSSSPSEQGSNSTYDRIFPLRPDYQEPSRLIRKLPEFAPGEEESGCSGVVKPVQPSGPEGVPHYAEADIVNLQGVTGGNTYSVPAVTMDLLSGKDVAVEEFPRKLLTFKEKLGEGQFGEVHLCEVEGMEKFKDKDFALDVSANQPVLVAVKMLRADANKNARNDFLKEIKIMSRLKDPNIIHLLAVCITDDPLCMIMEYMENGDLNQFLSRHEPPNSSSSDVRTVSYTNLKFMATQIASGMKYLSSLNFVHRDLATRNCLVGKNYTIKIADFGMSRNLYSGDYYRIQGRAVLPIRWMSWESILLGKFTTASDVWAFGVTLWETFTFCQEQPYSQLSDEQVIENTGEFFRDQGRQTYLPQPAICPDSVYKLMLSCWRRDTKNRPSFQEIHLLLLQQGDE

[32] = Tmax in NOD/SCID mouse plasma xenografted with human MV4-11 cells at 0.5 mg/kg, po measured up to 24 hrs by LC-MS/MS analysis; type: ADME, organism-based
CAKI-1 = assay: cells; details: Homo sapiens, CAKI-1, 72 h
Description: Antiproliferative activity against human CAKI-1 cells assessed as inhibition of cell growth incubated for 72 hrs by celltiter-glo luminescent cell viability assay

Tmax at 24 h [1]: 1 h
inhibition [2]: Dose-dependent-effect
AUC(0-t) at 24 h [3]: 1290 ng·h/mL
pIC50 (HL-60): < 5.00
inhibition [4]: Dose-dependent-effect
bioavailability [6]: 71.9%
Tmax [7]: 1.67 h
pIC50 (HCT-116): 5.07
CL/F [8]: 6.67 mL/min/kg
half-life at 24 h [9]: 3.34 h
Cmax at 24 h [10]: 91.9 ng/mL
pIC50 (BaF3 [11]): 9.05
Cmax [12]: 1660 ng/mL
Cmax [13]: 4720 ng/mL
Cmax [14]: 307 ng/mL
AUC(0-t) at 24 h [15]: 380 ng·h/mL
AUC(0-t) at 24 h [16]: 908 ng·h/mL
pIC50 (BaF3 [17]): 7.43
half-life [18]: 6.28 h
pIC50 (BaF3 [19]): 7.96
pIC50 (Cytochrome P450 2C9): < 4.48
Tmax [20]: 4.98 min
pIC50 (Cytochrome P450 2D6): < 4.48
pIC50 [21]: 6.92
AUC(0-t) at 24 h [22]: 208 ng·h/mL
Vd [23]: 0.996 L/kg
AUC(0-t) at 24 h [24]: 1470 ng·h/mL
pIC50 (RPMI-8226): < 5.00
half-life [26]: 1.73 h
inhibition [27]: inactive
pIC50 [28]: 5.75
pIC50 [29]: 6.55
pIC50 (BaF3 [30]): 8.27
pIC50 [31]: 6.37
Tmax [32]: 1 h
pIC50 (CAKI-1): < 5.00
SMILES: CC(C)(C)c1cc(NC(=O)Nc2ccc(C#Cc3ccc(OCCCN4CCOCC4)cc3)cc2)no1
inhibition in vivo at […] (MOLM-13 [5]): 52%
inhibition at 30 µM (hERG (KCNH2)): 22.8%
inhibition in vivo at 0.5 mg/kg/day (MOLM-13 [25]): 39%
